The results in this text go back to patent US8552059B2, “Treatment of ischemic episodes and cerebroprotection through misoprostol” (The Board of Trustees of the Leland Stanford Junior …, priority 2009, dated 2013).

Molecules are shown by their SMILES.

This assay deals with murine middle cerebral artery occlusion-reperfusion (MCAO-RP) model of transient focal ischemia. Put plainly: Middle cerebral artery occlusion-reperfusion (MCAO-RP), 90 min MCAO, misoprostol. The class given is in vivo, mouse. The conditions noted are these: p<0.05.

Method: Focal cerebral ischemia was induced by 90 minutes of reversible right middle cerebral artery occlusion (MCAO) under isofluorane anesthesia followed by 22.5 hours or 72 hours of reperfusion and terminal histopathology, as previously described (McCullough et al., 2004). […] Mice were given 3 subcutaneous injections of either vehicle (hydroxypropyl-methyl cellulose; HPMC) or 1 mg/kg misoprostol in HPMC (1:100 misoprostol:HPMC; Pfizer, Groton, Conn.) (Best et al., 1995) either at onset of MCAO or 2 hours after MCAO, followed by two subsequent doses 6 and 12 hours later. In the first experiment, misoprostol was given at onset of MCAO, with the two subsequent injections given at 6 hours and at 12 hours post MCAO, and brains were analyzed 22.5 hours later. In the second experiment, treatment with the initial dose of misoprostol was delayed two hours after the onset of MCAO, and two subsequent doses were then administered at 8 hours and 14 hours after MCAO and brains were analyzed at 22.5 hours later. In the third experiment, a delayed time point was tested, and misoprostol was given 2 hours after MCAO and again at 6 and 12 hours; brains were examined at 72 hours. […] A fifth cohort of EP3−/− and +/+ mice underwent treatment with either vehicle or misoprostol at MCAO, with subsequent administration of misoprostol or vehicle at 6 and 12 hours post MCAO and brain examination 22.5 hours later.

On to `CCCCC(C)(O)C/C=C/[C@H]1[C@H](O)CC(=O)[C@@H]1CCCCCCC(=O)OC` (mixture of isomers) [misoprostol], for which the Neurological scores (1 mg/kg s.c. 2 h after MCAO, again at 6 and 12 h, 72 h, comparison value 2.6+/−0.24) was 1.0+/−0.22; the Neurological scores (1 mg/kg s.c. 2 h after MCAO, then at 8 and 14 h, 24 h, comparison value 2.6+/−0.3) is 1.7+/−0.3; the Neurological scores (1 mg/kg s.c. at onset of 90 min MCAO, then at 6 and 12 h, 24 h, comparison value 2.4+/−0.2) is reported as 1.8+/−0.2.
